# Test results: PMC3335078, “Length and Amino Acid Sequence of Peptides Substituted for the 5-HT3A Receptor M3M4 Loop May Affect Channel Expression and Desensitization” (PLoS ONE, 2012)
# Key:
# [1] = biological target: T1, 5-HT3A-A1 (M3M4 loop replaced by one alanine) (Mus musculus, UniProt P23979, DELINS338-452A); assay: Two-electrode voltage clamp, oocytes expressing 5-HT3A-A1; type: cell-based
# T1 construct: expressed in transfected cells; host or cells: Xenopus laevis oocytes injected with mRNA
# T1 sequence (P23979 with tags, fused parts or gaps isoform P23979-2 DELINS338-452A limits assumed): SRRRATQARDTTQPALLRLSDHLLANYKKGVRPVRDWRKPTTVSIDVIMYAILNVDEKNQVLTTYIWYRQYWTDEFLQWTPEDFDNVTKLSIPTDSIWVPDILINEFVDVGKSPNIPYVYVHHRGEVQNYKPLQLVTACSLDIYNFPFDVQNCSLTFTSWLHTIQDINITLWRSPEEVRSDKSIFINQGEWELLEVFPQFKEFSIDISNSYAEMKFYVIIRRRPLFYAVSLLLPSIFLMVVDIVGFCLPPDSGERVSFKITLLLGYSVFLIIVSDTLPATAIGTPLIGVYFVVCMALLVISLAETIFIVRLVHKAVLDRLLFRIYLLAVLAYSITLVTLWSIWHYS
# Source text: (§1) The mouse 5-HT3A cDNA with an N-terminal V5 epitope tag was cloned into the pXOON vector as previously described, and is referred to in this paper as “wild-type” (WT). The starting construct for all of the M3M4 loop replacement constructs used in this work was the 5-HT3A-ΔM3M4 construct formed by splicing the cytoplasmic end of M3 (M3-LVHK/QDLQRP…) to the cytoplasmic end of M4 (…WLRVGY/VLDRLL-M4). The splice was made at the site of the “/” to yield the sequence M3-LVHK/VLDRLL-M4 [34]. This removed 115 residues predicted to form the M3M4 loop.
# (§2) The construction of the 5-HT3A-glvM3M4 chimera with the 5-HT3A M3M4 loop replaced by the GLIC heptapeptide M3M4 loop (SQPARAA) was described previously. Point mutations, alanine and Gly-Ser-Ala insertions into the 5-HT3A-ΔM3M4 construct were generated with the Quikchange site directed mutagenesis procedure (Stratagene, La Jolla, CA). The entire coding region of all mutant constructs was verified by DNA sequencing (Albert Einstein College of Medicine DNA Sequencing Facility). The pXOON plasmid was linearized using NheI and capped mRNA prepared with T7 RNA polymerase (mMessage mMachine, Ambion, Austin, TX).
# (§3) Use of Xenopus laevis in this study was carried out in strict accordance with the recommendations in the Guide for the Care and Use of Laboratory Animals of the National Institutes of Health. The protocol was approved by the Albert Einstein College of Medicine Animal Care and Use Committee (Protocol Number: 20081201). All surgery was performed under tricaine anesthesia, and all efforts were made to minimize suffering. Oocyctes were harvested from Xenopus (Nasco Science, Fort Atkinson, WI) anesthetized with 0.15% tricaine. Oocyctes were defolliculated by incubation in 2 mg ml^−1 Type 1A collagenase (Sigma-Aldrich, St. Louis, MO) in OR2 (85 mM NaCl, 2 mM KCl, 1 mM MgCl2, and 5 mM HEPES; pH adjusted to 7.5 with NaOH) for a 60 or 75 min. Oocytes were washed in OR2 and stored at 16°C in SOS medium: 100 mM NaCl, 2 mM KCl, 1 mM MgCl2, 1.8 mM CaCl2 5 mM HEPES, pH 7.5 with 100 IU ml^−1 penicillin, 100 µg ml^−1 streptomycin, and 250 ng ml^−1 amphotericin B (Invitrogen, Carlsbad, CA) and 5% horse serum (Sigma-Aldrich). 24 hrs following isolation, oocyctes were injected with 23 nl (2.3 ng) of mRNA and were kept in SOS media for 2–5 d at 16°C.
# (§4) Currents were recorded under two-electrode voltage clamp from oocytes 2–5 d post-injection as described previously. […] The perfusion chamber volume was 200 µl. […]
# (§5) Desensitization rates were determined by fitting a single exponential decay function to the current data with Prism 4 software (GraphPad Software). Significant differences compared with wild-type were determined by a one-way ANOVA (p<0.05) using Dunnett's multiple comparison post-hoc test (p<0.05). […]
# [2] = biological target: T2, 5-HT3A-A2 (M3M4 loop replaced by two alanines) (Mus musculus, UniProt P23979, DELINS338-452AA); assay: Two-electrode voltage clamp, oocytes expressing 5-HT3A-A2; type: cell-based
# T2 construct: expressed in transfected cells; host or cells: Xenopus laevis oocytes injected with mRNA
# T2 sequence (P23979 with tags, fused parts or gaps isoform P23979-2 DELINS338-452AA limits assumed): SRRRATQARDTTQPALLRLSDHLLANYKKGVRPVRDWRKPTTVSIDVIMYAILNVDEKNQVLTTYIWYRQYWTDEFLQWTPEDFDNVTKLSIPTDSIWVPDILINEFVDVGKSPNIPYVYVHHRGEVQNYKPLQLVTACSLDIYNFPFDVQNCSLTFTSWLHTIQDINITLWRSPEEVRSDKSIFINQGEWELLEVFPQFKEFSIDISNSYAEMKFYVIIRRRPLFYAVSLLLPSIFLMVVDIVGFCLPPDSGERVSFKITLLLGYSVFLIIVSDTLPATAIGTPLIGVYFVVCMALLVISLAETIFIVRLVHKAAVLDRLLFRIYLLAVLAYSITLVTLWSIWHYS
# Source text: as §1, §2, §3, §4, §5
# [3] = biological target: T3, 5-HT3A-A4 (M3M4 loop replaced by four alanines) (Mus musculus, UniProt P23979); assay: Two-electrode voltage clamp, oocytes expressing 5-HT3A-A4; type: cell-based
# T3 construct: expressed in transfected cells; host or cells: Xenopus laevis oocytes injected with mRNA
# T3 sequence (P23979 with tags, fused parts or gaps isoform P23979-2 limits assumed): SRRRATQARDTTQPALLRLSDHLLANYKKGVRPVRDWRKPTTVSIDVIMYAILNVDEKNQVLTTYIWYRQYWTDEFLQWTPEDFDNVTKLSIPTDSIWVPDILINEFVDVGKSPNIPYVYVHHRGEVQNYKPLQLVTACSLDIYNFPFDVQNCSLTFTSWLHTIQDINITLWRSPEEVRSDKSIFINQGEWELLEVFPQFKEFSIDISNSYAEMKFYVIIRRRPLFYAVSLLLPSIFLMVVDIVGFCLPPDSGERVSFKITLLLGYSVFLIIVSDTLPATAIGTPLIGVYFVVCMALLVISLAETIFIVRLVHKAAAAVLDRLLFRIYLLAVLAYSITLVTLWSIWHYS
# Source text: as §1, §2
# Use of Xenopus laevis in this study was carried out in strict accordance with the recommendations in the Guide for the Care and Use of Laboratory Animals of the National Institutes of Health. The protocol was approved by the Albert Einstein College of Medicine Animal Care and Use Committee (Protocol Number: 20081201). All surgery was performed under tricaine anesthesia, and all efforts were made to minimize suffering. Oocyctes were harvested from Xenopus (Nasco Science, Fort Atkinson, WI) anesthetized with 0.15% tricaine. […]
# Currents were recorded under two-electrode voltage clamp from oocytes 2–5 d post-injection as described previously. […]
# as §5
# 5-HT3A-A5 = biological target: T4, 5-HT3A-A5 (Mus musculus, UniProt P23979); assay: Radioactive 5-HT binding to oocytes expressing 5-HT3A-A5; conditions: 150 nM [3H]5-HT + 10 µM 5-HT, 5 min, 45 s cold wash
# T4 construct: expressed in transfected cells; host or cells: Xenopus laevis oocytes injected with mRNA
# Experimental: Assays were terminated by five washes with ice cold CFFR buffer, followed by solubilization of the oocytes individually with 200 µl 5% SDS. Total wash time was 45 s. […] All data points represent the average of at least fifteen individual oocytes derived from three separate oocyte isolations.
# To determine the extent of non-specific binding, all binding experiments were performed in parallel with diethylpyrocarbonate-(DEPC)-treated-water injected oocytes or uninjected oocytes.
# [4] = 10 µM 5-HT, Xenopus oocytes, -60 mV
# T4 sequence (P23979 with tags, fused parts or gaps isoform P23979-2 limits assumed): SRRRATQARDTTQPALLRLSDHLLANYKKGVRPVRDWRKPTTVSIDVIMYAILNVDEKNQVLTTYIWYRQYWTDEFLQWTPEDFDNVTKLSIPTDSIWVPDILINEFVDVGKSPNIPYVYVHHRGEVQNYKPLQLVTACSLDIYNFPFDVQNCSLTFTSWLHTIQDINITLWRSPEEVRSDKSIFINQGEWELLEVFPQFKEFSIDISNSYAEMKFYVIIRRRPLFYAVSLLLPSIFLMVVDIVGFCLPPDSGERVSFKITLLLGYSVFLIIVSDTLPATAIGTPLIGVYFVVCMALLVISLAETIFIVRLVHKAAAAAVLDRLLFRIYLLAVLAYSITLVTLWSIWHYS
smiles,measurement,setting,value
"NCCc1c[nH]c2ccc(O)cc12 [5-HT, 5-hydroxytryptamine]",10–90% Activation rise time,[1]; 10 µM 5-HT,1055 ± 17 ms
same,Desensitization time constant τ,"[1]; initial 10 µM 5-HT application, may be limited by solution exchange",7 ± 1 s
same,Imax (peak current),"[1]; initial application of 10 µM 5-HT, Xenopus oocytes, -60 mV",1800±380 nA
same,Current induced by subsequent 5-HT application,[1]; subsequent 5-HT application 360 s later,159±5 nA
same,nH (Hill coefficient),[2],2.0±0.3
same,10–90% Activation rise time,[2]; 10 µM 5-HT,617 ± 32 ms
same,Imax (peak current),[2]; [4],6900±260 nA
same,Desensitization time constant τ,[2]; prolonged 10 µM 5-HT,43 ± 4 s
same,10–90% Activation rise time,[3]; 10 µM 5-HT,487 ± 25 ms
same,Imax (peak current),[3]; [4],7100±400 nA
same,Desensitization time constant τ,[3]; prolonged 10 µM 5-HT,56 ± 9 s
same,Radiolabeled 5-HT bound per oocyte,5-HT3A-A5,0.40±0.03 pmol per oocyte
